Measurements published in paper PMC7497016, “The Human Host‐Defense Peptide Cathelicidin LL‐37 is a Nanomolar Inhibitor of Amyloid Self‐Assembly of Islet Amyloid Polypeptide (IAPP)” (Angewandte Chemie (International Ed. in English), 2020).
Read-outs that look alike come from different tables or passages of the source. One block for each compound: values may come before it. Ends that are not written are not given here.

Tests used:
RIN5fm cells = details: LL-37 alone, 7 days aged, 1 assay, n=3
[1] = tested on: cytotoxic IAPP assemblies on RIN5fm cells
[2] = biological target: T1, IAPP (Fluos-IAPP, mostly monomers) (Homo sapiens, UniProt P10997); experiment: Fluorescence spectroscopic titration of Fluos-IAPP; format: binding; details: for Kd: SD
T1 construct: made in house; host or cells: chemical synthesis
T1 sequence (P10997 34-70 limits assumed): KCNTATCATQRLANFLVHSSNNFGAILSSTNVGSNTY
Procedure: Fluorescence spectros copic titrations
Fluorescence spectrosco pic titration studies w ere performed with a JASC O FP-6500 fluorescence spectrophotometer using a previously described experimental protocol.[1, 5, 7] Briefly, excitation was at 492 nm and emission spectra were recorded between 500 and 600 nm. The app arent (app.) Kds of the interactions of IAPP with LL-37 and its segments LL-37(1- 14) and LL-37(15- 37) were quantified by titrating synthetic N α-amino-terminal fluorescein labeled IAPP (5 nM) with various amounts of each of the peptides . For all exp eri ments , freshly made stocks of peptides and their fluorescently lab eled an alogs in HF IP wer e used. Measurements w er e performed in 10 mM sodium phosphate buffer (pH 7.4) containing 1% HFIP within 2-5 min following solution preparation at room temperature. Of note, under these conditions freshly made Fluos-IAPP (5 nM) solutions consist mostly of monomers.[1] App. Kds were calculated using 1/1 binding models as previously described and ar e means (± SD) of three binding curves.[1, 3, 5, 7]
Cross-linking, NuPAGE, and Western Blot analysis
Cross-linking studies were preformed using a previously developed assay system.[5] Briefly, solutions of IAPP alone (30 µM) and its mixtures with LL-37 or scrLL- 37 at the indicated molar ratios (IAPP/LL-37 at 1/1 or 1/0.1) wer e p repared in aqueous sodium phosphate buffer, pH 7.4,

[3] = biological target: T2, IAPP monomers and fibrils (Homo sapiens, UniProt P10997); experiment: Dot blot binding to IAPP monomers and fibrils; details: IAPP monomers and fibrils (40 µg) on nitrocellulose, FAM-LL-37 200 nM, overnight 10 °C; representative of 4 assays
T2 construct: The 37‐residue IAPP is secreted from the β‐cells together with insulin; made in house; host or cells: chemical synthesis (Fmoc solid-phase synthesis on Rink resin)
T2 sequence (P10997 34-70 limits assumed): T1 sequence (P10997 34-70 limits assumed)
Procedure: Solutions were cross-linked using 25% aqueous glutaraldehyde (Sigma-Aldrich) an d 10% aqueous trichloro acetic acid (TCA ) was […] buffer, boiled for 5 min, and subjected to NuPAGE electrophoresis in 4- 12% Bis-Tris gels with MES running buffer (Invitrogen). The s ame volume of each solution (same IAPP amount) was loaded in all l anes. Peptid es were blotted using a X Cell II Blot Module blotting system (Invitrogen ). IAPP or […] using a polyclonal rabbit anti-IAPP antibody (Peninsula) or a monoclonal mouse anti-LL- 37 antibody (Santa Cruz Biotechnology), resp ectively in combination with suitable peroxidase (POD)-coupled s econdary antibodies (Pierce & Am […] Super Signal West Dura Extended Duration Substrate (Pierce). Of note, previous studies provided evidence for the […] of th e cross-linking assay; in addition, no new bands were obs […]-37 (1/1) mixtures (data not shown).[5] Dot blot analysis IAPP monomers or IAPP fibrils (fIAPP) containin g solutions (different am ounts up to 40 μg) were spotted onto a nitrocellulose membrane. […] In addition, to control for t he interference of fibril autofluorescence, a membrane containing spotted f IA P P which had been incubated in buffer alone w/o FAM-LL-37 was included in each assay; in general, fIAPP autofluorescence contribute d up to 25% of the total amount of fluorescence observed in fIAPP bound toFAM -LL- 37. […]

[4] = Fluos-IAPP 5 nM, 10 mM sodium phosphate pH 7.4, 1% HFIP, room temperature, 1/1 binding model, mean (±SD) of three binding curves, read-out: app. Kd of interaction with Fluos-IAPP

Compound: CC[C@H](C)[C@H](NC(=O)[C@H](CCCCN)NC(=O)[C@H](CCC(=O)O)NC(=O)[C@H](CCCCN)NC(=O)[C@H](CO)NC(=O)[C@H](CCCCN)NC(=O)[C@H](CCCNC(=N)N)NC(=O)[C@H](Cc1ccccc1)NC(=O)[C@H](Cc1ccccc1)NC(=O)[C@H](CC(=O)O)NC(=O)CNC(=O)[C@H](CC(C)C)NC(=O)[C@@H](N)CC(C)C)C(=O)NCC(=O)N[C@@H](CCCCN)C(=O)N[C@@H](CCC(=O)O)C(=O)N[C@@H](Cc1ccccc1)C(=O)N[C@@H](CCCCN)C(=O)N[C@@H](CCCNC(=N)N)C(=O)N[C@H](C(=O)N[C@H](C(=O)N[C@@H](CCC(N)=O)C(=O)N[C@@H](CCCNC(=N)N)C(=O)N[C@H](C(=O)N[C@@H](CCCCN)C(=O)N[C@@H](CC(=O)O)C(=O)N[C@@H](Cc1ccccc1)C(=O)N[C@@H](CC(C)C)C(=O)N[C@@H](CCCNC(=N)N)C(=O)N[C@@H](CC(N)=O)C(=O)N[C@@H](CC(C)C)C(=O)N[C@H](C(=O)N1CCC[C@H]1C(=O)N[C@@H](CCCNC(=N)N)C(=O)N[C@H](C(=O)N[C@@H](CCC(=O)O)C(=O)N[C@@H](CO)C(=O)O)[C@@H](C)O)C(C)C)[C@@H](C)CC)C(C)C)[C@@H](C)CC [LL-37]
- cytotoxicity of peptide alone (MTT reduction) (RIN5fm cells): not cytotoxic
- effect on formation of cytotoxic IAPP assemblies (MTT reduction) [1]: effectively suppressed
- IC50 ([1]; rat, SD): 17 nM
- increase in fluorescence emission of Fluos-IAPP ([2]; Fluos-IAPP 5 nM with 100-fold molar excess of LL-37, pH 7.4): 322%
- Kd [2]: 88.1 nM

- binding to IAPP fibrils and monomers (dot blot) [3]: bound both IAPP fibrils and monomers
Compound: FAM-LL-37: N-terminal fluorescein-labeled LL-37 with 6-aminohexanoic acid spacer, from Anaspec

- Kd [2, 4]: 31.9 nM
Compound: KEFKRIVQRIKDFLRNLVPRTES [LL-37(15-37)]

- Kd [2, 4]: 2540 nM
Compound: LLGDFFRKSKEKIG [LL-37(1-14)]
